Test results as given in publication PMC12059926, “Development and Biological Assessment of Thiazole-Based Pyridines for Targeted Therapy in Lung Cancer” (ACS Omega, 2025).
Values after ≈ are worked out from the molar mass of the structure shown.

Legend:
[1] = system: A549 lung cancer cell line; assay: MTT cytotoxicity assay on A549 lung cancer cells; format: cell-based, human; conditions: for IC50: Homo sapiens, A549 cells, MTT, mean ± SD; for SI: selectivity index: L929 versus A549
Description: (§1) The synthesized final compounds (2a–2o) were initially evaluated for their cytotoxic effects to assess their anticancer activity against A549 lung cancer cells. The healthy cell line L929 (mouse fibroblast cell line) was also used to determine the selective antiproliferative properties of the compounds.
(§2) The human lung cancer cell line A549 and mouse fibroblast cell line L929 were used to evaluate the cytotoxicity of the compounds. Cells propagated under the specified conditions were cultured in 96-well plates at 5 × 10^3 cells/well. […] At the end of the incubation period, cell viability was determined by measuring the absorbance of the purple color formed by the breakdown of the MTT dye at 540 nm. Half-maximal inhibitory concentrations (IC50) were determined based on the tested concentrations of the compounds. The tests were triplicated.[38] The MTT assay for cytotoxicity of compounds was determined according to previously published procedures.[39],[40]
(§3) The concentration that inhibits 50% of the cell population was calculated as IC50 using GraphPad Prism 9.0 statistical software program, and standard deviation values were analyzed. Data are expressed as mean ± SD. Comparisons were made using one-way ANOVA for continuous variables with normal distribution, and Tukey’s test was used for post hoc analysis of group differences. p < 0.05 was considered statistically significant.
(§4) The cell viability value of the control group was considered 100%, and all viability values were calculated using the formula below. The experiment was performed in 3 replicates. [drawing 2]

A549 cells [2] = assay: Annexin V-FITC/propidium iodide apoptosis detection by flow cytometry; format: cell-based, human; conditions: IC50 dose, 24 h
Description: To determine whether the antiproliferative effects of the compounds on the A549 cell line proceed through the apoptotic or necrotic pathway, the assay was performed with Annexin V-FITC/propidium iodide dyes in a flow cytometry device. […] At least 10,000 cells were analyzed, and quadrant analysis was performed. The results are presented as early apoptotic cells, late apoptotic cells, viable cells, and necrotic cells in Table 3, and as a diagram in Figure 1. In control cells, the number of viable cells was 92.04%, necrotic cells were 1.16%, early apoptotic cells were 3.43%, and late apoptotic cells were 3.28%. […] Among the compounds, 2m was the most apoptosis-inducing compound, with 14.99% early apoptotic and 10.63% late apoptotic cell percentages. […] This compound was followed by compound 2c with a 13.79% early apoptotic cells and 4.03% late apoptotic cells. Among the compounds, compound 2o induced early apoptosis the least (1.87%) and necrosis the most (3.10%). […] Nonapoptotic cell death methods, such as necroptosis and pyroptosis, can be considered for the aforementioned compounds.
The compounds were treated with A549 cells at IC50 doses, and early and late apoptosis, necrosis, and viable cell ratios were determined as percentages. Cells were seeded at 37 °C in humidified air containing 5% CO2 with 10^5 cells/plate in each well. A549 cells were collected, washed twice with ice-cold PBS, and resuspended in 100 μL of binding buffer. Five μL (5 μg/mL) of Annexin V-FITC and PI were added to the cells and incubated for 15 min in the dark at room temperature (20–25 °C). Then, 400 μL of binding buffer was added to the mixture samples and analyzed on a flow cytometer. Quadrant analyses were also presented.[41] Compounds 2a, 2b, 2c, 2j, 2m, and 2o, with a satisfactory cytotoxic profile, were examined via flow cytometry to assess the apoptosis/necrosis cell ratio using previously published procedures.[42]
(§5) The apoptotic results (Annexin V-FITC, Caspase 3, JC-1) were evaluated by flow cytometry using FACS Diva Version 6.1.1. software, and the apoptotic cells were determined as the percentage of cells.

caspase-3 in A549 cells = assay: Caspase-3 activation; format: cell-based, human; conditions: 24 h
Text: Caspases can take part in the cell death mechanism through both intrinsic and extrinsic pathways, with caspase-3 being the first enzyme activated in the apoptosis process.[24] Activation of the caspase-3 enzyme by the compounds, indicated as caspase-3 positive, and inhibition, indicated as caspase-3 negative, are presented in percentage terms in Table 5.
A Spectrofluorometric Caspase-3 assay kit (BD Pharmingen, Franklin Lakes, NJ) was used for determining Caspase-3 activation by measuring the caspase-3 or DEVD-cleaving activity. Initially, A549 cells at a concentration of 1 × 10^6 cells/mL underwent a washing process using phosphate-buffered saline (PBS). Subsequently, they were suspended in a cold solution known as cell lysis buffer and kept on ice for a duration of 30 min. […] In each reaction, a mixture of […] of diluted Ac DEVD-AMC (a synthetic tetrapeptide fluorogenic substrate used to measure caspase-3 activity) and 0.2 mL of 1x HEPES buffer was added to a well. Then, […] of cell lysate was introduced into each well/reaction. The reaction mixtures were incubated at 37 °C for 1 h. The amount of AMC released from Ac-DEVD-AMC was measured by using a microplate reader (PerkinElmer/Victor/X3) with an excitation wavelength of 380 nm and an emission wavelength of 460 nm. Apoptotic cell lysates containing active caspase-3 produced significant emissions compared to controls. In addition, the AMC emission of nonapoptotic control cell lysates was taken as 100%, and the emission of other cell lysates was measured relative to the emission of control cells. All experiments were repeated in duplicate. Active compounds, which are the most cytotoxic compounds, were evaluated for caspase-3 activation using previously published procedures.[40],[44]
as §5

MMP-9 enzyme = biological target: T1, MMP-9 enzyme (Homo sapiens, UniProt P14780); assay: MMP-9 enzyme inhibition, colorimetric kit; format: biochemical; conditions: for inhibition at 100 µM: compounds at 100 μM, mean ± SD
T1 construct: purchased Enzo Life Sciences Inc. (Farmingdale, NY, USA)
Description: Compounds (2a–2o) were tested to determine their MMP-9 enzyme inhibition potential. The compounds were tested at a concentration of 100 μM, and the standard molecule NNGH at a concentration of 1.3 μM.
MMP-9 inhibition was assessed using a colorimetric kit from Enzo Life Sciences Inc. (Farmingdale, NY, USA), following procedures similar to those described in previous studies.[25],[26] A thiopeptide was used as a chromogenic substrate (Ac-PLG-[2-mercapto-4-methyl-pentanoyl]-LG-OC2H5). 2-Nitro-5-thiobenzoic acid, formed by the reaction of the sulfhydryl group produced as a result of hydrolysis of the thioester by the MMP-9 enzyme and then reaction with DTNB [5,5′-dithiobis(2-nitrobenzoic acid), Ellman’s reagent], gives absorbance at 412 nm in a microplate reader (BioTek, PowerWave, Gen5 software, Winooski, VT, USA). Based on these absorptions, MMP-9 inhibition concentrations were determined. The assays were performed in triplicate. NNGH (N-isobutyl-N-(4-methoxyphenylsulfonyl)glycyl hydroxamic acid) was used as a control inhibitor. Data were shown as mean ± SD. The inhibitor % remaining activity of MMPs was calculated using the following equation:
Inhibitor% activity remaining = (V inhibitor/V control) × 100.
The inhibition (percent) of MMPs was calculated using the following equation: [drawing 1]

A549 cells [3] = assay: Mitochondrial membrane potential (JC-1) by flow cytometry; format: cell-based, human; conditions: IC50 dose, JC-1
Text: The mitochondrial membrane potential provides information about the state of electrons during ATP production through oxidative phosphorylation, which is essential for cellular viability. Mitochondrial dysfunction occurs when this electrical regulation is disturbed and can occur in various diseases and the process of apoptosis.[23] […] Compounds 2m, 2g, and 2c followed this, with depolarization levels exceeding 21%. The mitochondrial dysfunction in compound 2m can be considered a contributing factor to apoptosis.
Cell staining with JC-1 was performed according to the manufacturer’s recommendations for the BD , Pharmingen Flow Cytometry Kit. […] Compounds were applied at IC50 doses of no more than 1 × 10^6/mL per well in 6-well plates. After treatment, each cell suspension was transferred to a 15 mL polystyrene centrifuge tube, the cells were centrifuged at 400g for 5 min, and the supernatant was removed. 0.5 mL of freshly prepared working solution was added to each pellet, and the solution was vortexed. The test cells were soaked in JC-1 working solution at 37 °C for 10–15 min, and the cells were washed twice. After centrifugation at 400g for 5 min, each cell pellet was suspended in 0.5 mL of 1X assay buffer and vortexed. The cells were then analyzed by flow cytometer.
as §5

[4] = system: L929 (mouse fibroblast cell line); assay: MTT cytotoxicity assay on L929 healthy cells; format: cell-based; conditions: mean ± SD
Description: as §1, §2, §3, §4

T1 sequence (P14780 107-444 limits assumed): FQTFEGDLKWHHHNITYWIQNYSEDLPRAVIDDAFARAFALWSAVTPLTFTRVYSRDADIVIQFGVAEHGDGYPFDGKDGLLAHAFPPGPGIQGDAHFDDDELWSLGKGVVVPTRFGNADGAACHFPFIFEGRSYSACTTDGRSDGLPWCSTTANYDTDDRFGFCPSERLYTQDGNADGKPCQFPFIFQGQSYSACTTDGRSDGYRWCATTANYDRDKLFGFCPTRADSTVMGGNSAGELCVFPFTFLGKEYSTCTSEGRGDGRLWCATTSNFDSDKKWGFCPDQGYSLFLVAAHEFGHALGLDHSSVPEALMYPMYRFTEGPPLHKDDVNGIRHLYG

SMILES | inhibition at 100 µM (MMP-9 enzyme) [%] | IC50 [1] [µg/mL] | Q1-LL viable cells (A549 cells [2]) [%] | Q1-LR early apoptotic cells (A549 cells [2]) [%] | Q1-UL necrotic cells (A549 cells [2]) [%] | Q1-UR late apoptotic cells (A549 cells [2]) [%] | % Caspase-3 negative cells (caspase-3 in A549 cells) [%] | % Caspase-3 positive cells (caspase-3 in A549 cells) [%] | % Mitochondrial membrane polarized cells (A549 cells [3]) [%] | IC50 [4] [µg/mL] | SI: selectivity index [1] | MMP-9 inhibition, result in words (MMP-9 enzyme; compared with 2f)
CS(=O)(=O)c1ccc(-c2csc(NN=Cc3cccnc3)n2)cc1 [Compound 2g, 4-(4-(Methylsulfonyl)phenyl)-2-(2-(pyridin-3-ylmethylene)hydrazinyl)thiazole] | 8.63 ± 1.32 | 8.4 ± 0.34 (≈ 23.4 µM) | 88.98 | 7.20 | 0.98 | 2.84 | 73.16 | 0.38 | 76.68 | 56.4 ± 0.59 (≈ 157 µM) |  | 
COc1ccc(OC)c(-c2csc(NN=Cc3ccccn3)n2)c1 [Compound 2a, 4-(2,5-Dimethoxyphenyl)-2-[2-(pyridin-2 ylmethylene)hydrazinyl]thiazole] |  | 7.3 ± 0.33 (≈ 21.4 µM) |  |  |  |  |  |  |  | 4.36 ± 0.32 (≈ 12.8 µM) | 0.60 | less active than 2f (2,5-dimethoxypehnyl) or inactive
Clc1ccc(-c2csc(NN=Cc3ccccn3)n2)cc1Cl [Compound 2e, 4-(3,4-Dichlorophenyl)-2-(2-(pyridin-2-ylmethylene)hydrazinyl)thiazole] | 30.3 ± 2.64 | 4.56 ± 0.31 (≈ 13.1 µM) |  |  |  |  |  |  |  | 4.87 ± 0.3 (≈ 13.9 µM) | 1.07 | 

Further lines, with some results ahead:

inhibition at 100 µM (MMP-9 enzyme) [%] | SMILES | IC50 [1] [µg/mL] | Q1-LL viable cells (A549 cells [2]) [%] | Q1-LR early apoptotic cells (A549 cells [2]) [%] | Q1-UL necrotic cells (A549 cells [2]) [%] | Q1-UR late apoptotic cells (A549 cells [2]) [%] | % Caspase-3 negative cells (caspase-3 in A549 cells) [%] | % Caspase-3 positive cells (caspase-3 in A549 cells) [%] | % Mitochondrial membrane polarized cells (A549 cells [3]) [%] | IC50 [4] [µg/mL] | SI: selectivity index [1] | MMP-9 inhibition, result in words (MMP-9 enzyme; compared with 2f)
23.1 ± 2.08 | C(=NNc1nc(-c2ccc(-c3ccccc3)cc2)cs1)c1ccccn1 [Compound 2c, 4-([1,1’-Biphenyl]-4-yl)-2-(2-(pyridin-2-ylmethylene)hydrazinyl)thiazole] | 10.1 ± 0.38 (≈ 28.4 µM) | 81.54 | 13.79 | 0.64 | 4.03 | 91.76 | 5.95 | 79.61 | 125 ± 0.64 (≈ 351 µM) |  | 
9.4 ± 1.22 | C(=NNc1nc(-c2ccc(-c3ccccc3)cc2)cs1)c1ccncc1 [Compound 2m, 4-([1,1’-Biphenyl]-4-Yl)-2-(2-(pyridin-4-ylmethylene)hydrazinyl)thiazole] | 12.1 ± 0.43 (≈ 33.8 µM) | 73.32 | 14.99 | 1.07 | 10.63 | 69.82 | 0.86 | 75.72 | 31.2 ± 0.55 (≈ 87.7 µM) |  | 
